The text below walks through data of article PMC9395504 (Investigational New Drugs, 2022).

By Cmax is commonly meant the maximum level reached in the sampled fluid or tissue. As usually defined, the Tmax is the time at which the peak concentration occurs.

Data set [1] is described as follows: Safety: adverse events by NCI-CTCAE v4.0, phase 1 study Part 1. The data set is classed as in vivo, human. How it is done: We defined the dose-limiting toxicity (DLT) period as the first 28 days of each dose-escalation cohort’s treatment cycle (DLT window). […] Non-hematologic DLTs included grade ≥3 nausea, vomiting, or diarrhea enduring >48 hours despite standard medical management, grade 3 fatigue persisting >7 days or grade 4 fatigue, any grade ≥3 metabolic laboratory abnormalities that are not controlled within 48 hours by standard medical management.

A short description of data set [2]: Plasma pharmacokinetics of trametinib and dabrafenib at steady state (LC-MS/MS, noncompartmental). The data set is classed as in vivo, human. To be noted: for Cmax / AUC(0-t) / Tmax: human, plasma, oral. As to the method: We, therefore, collected samples on these days to perform dabrafenib and trametinib PK analysis.
We determined plasma concentrations of trametinib, dabrafenib, and hydroxy- and desmethyl-dabrafenib metabolites with a validated assay using liquid-liquid extraction of samples spiked with the stable isotope internal standards for each analyte followed by analysis using LC-MS/MS detection. The validated concentration ranges for quantitation were 0.250 to 250 ng/mL for trametinib and 1.00 to 1,000 ng/mL for dabrafenib and its metabolites. We calculated concentrations using a linear regression calibration model with a 1/x^2 weighting factor.
The following PK parameters were estimated: maximum observed plasma concentration (Cmax), time to reach Cmax (tmax), area-under-the-plasma concentration-time curve (AUC), terminal phase half-life (t1/2,z), and apparent total body clearance (CL/F). We performed noncompartmental analyses for PK parameter estimation using Phoenix® WinNonlin® version 6.4 or later software (Certara™, Princeton, NJ). […] We prepared descriptive statistics, tables, and graphs using Phoenix® WinNonlin® and Prism version 9.1.1 (GraphPad Software, San Diego, CA).

Where [3] appears, read: trametinib 2 mg QD, Cycle 2 Day 7 with AMG 232, Arm 2 cohort 1 (AMG 232 120 mg), geometric mean (CV%).
[4] abbreviates: trametinib 2 mg QD, Cycle 2 Day 7 with AMG 232, Arm 2 cohort 3 (AMG 232 240 mg), geometric mean (CV%).

Where two headings read alike, the source gives them in different places. Marks after values point to notes of the source that are not given here.

As for `CC(=O)Nc1cccc(-n2c(=O)n(C3CC3)c(=O)c3c(Nc4ccc(I)cc4F)n(C)c(=O)c(C)c32)c1` [trametinib], the “Patients discontinuing trametinib due to AEs” value in data set [1] (all 31 patients, n=6) is listed as 19%. Moreover, the “Effect of AMG 232 co-administration on trametinib PK” value in data set [2] (cycle 2 day 7 vs cycle 1 day 21) is given as “does not appear to affect”. In addition, the Cmax in data set [2] (2 mg, trametinib 2 mg QD, Cycle 1 Day 21 without AMG 232, Arm 2 cohort 1 (AMG 232 120 mg), geometric mean (CV%)) came out at 21.5 ng/mL; in data set [2] (2 mg, trametinib 2 mg QD, Cycle 1 Day 21 without AMG 232, Arm 2 cohort 2 (AMG 232 180 mg), geometric mean (CV%)), 25.3 ng/mL; in data set [2] (2 mg, trametinib 2 mg QD, Cycle 1 Day 21 without AMG 232, Arm 2 cohort 3 (AMG 232 240 mg), geometric mean (CV%)), 22.1 ng/mL; in data set [2] (trametinib 2 mg QD, Cycle 1 Day 21 without AMG 232, Arm 1 cohort 1 (AMG 232 120 mg), geometric mean (CV%)), 20.1 ng/mL; in data set [2] (trametinib 2 mg QD, Cycle 1 Day 21 without AMG 232, Arm 1 cohort 2 (AMG 232 180 mg), geometric mean (CV%)), 24.1 ng/mL; in data set [2] (trametinib 2 mg QD, Cycle 2 Day 7 with AMG 232, Arm 1 cohort 1 (AMG 232 120 mg), geometric mean (CV%)), 22.4 ng/mL. Also, the highest concentration (Cmax) turned out to be 25.9 ng/mL in data set [2] (trametinib 2 mg QD, Cycle 2 Day 7 with AMG 232, Arm 1 cohort 2 (AMG 232 180 mg), geometric mean (CV%)); 24.8 ng/mL in data set [2] (setting [3]); 21.8 ng/mL in data set [2] (trametinib 2 mg QD, Cycle 2 Day 7 with AMG 232, Arm 2 cohort 2 (AMG 232 180 mg), n = 1); 24.3 ng/mL in data set [2] (setting [4]). In addition, the AUC(0-t) in data set [2] (2 mg, trametinib 2 mg QD, Cycle 1 Day 21 without AMG 232, Arm 2 cohort 1 (AMG 232 120 mg), geometric mean (CV%), read-out: AUC24hr) stood at 370 ng·h/mL; in data set [2] (trametinib 2 mg QD, Cycle 1 Day 21 without AMG 232, Arm 1 cohort 1 (AMG 232 120 mg), geometric mean (CV%), read-out: AUC24hr), 326 ng·h/mL; in data set [2] (trametinib 2 mg QD, Cycle 1 Day 21 without AMG 232, Arm 1 cohort 2 (AMG 232 180 mg), geometric mean (CV%), read-out: AUC24hr) it was 362 ng·h/mL; in data set [2] (trametinib 2 mg QD, Cycle 2 Day 7 with AMG 232, Arm 1 cohort 1 (AMG 232 120 mg), geometric mean (CV%), read-out: AUC24hr), 338 ng·h/mL; in data set [2] (trametinib 2 mg QD, Cycle 2 Day 7 with AMG 232, Arm 1 cohort 2 (AMG 232 180 mg), geometric mean (CV%), read-out: AUC24hr) it was 402 ng·h/mL; in data set [2] (trametinib 2 mg QD, Cycle 2 Day 7 with AMG 232, Arm 2 cohort 2 (AMG 232 180 mg), n = 1, read-out: AUC24hr) it was 463 ng·h/mL. The Tmax in data set [2] (2 mg, trametinib 2 mg QD, Cycle 1 Day 21 without AMG 232, Arm 2 cohort 2 (AMG 232 180 mg), median (min-max), read-out: tmax) came out at 4 h; in data set [2] (2 mg, trametinib 2 mg QD, Cycle 1 Day 21 without AMG 232, Arm 2 cohort 3 (AMG 232 240 mg), median (min-max), read-out: tmax), 2 h; in data set [2] (trametinib 2 mg QD, Cycle 1 Day 21 without AMG 232, Arm 1 cohort 1 (AMG 232 120 mg), median (min-max), read-out: tmax), 2 h; in data set [2] (trametinib 2 mg QD, Cycle 1 Day 21 without AMG 232, Arm 1 cohort 2 (AMG 232 180 mg), median (min-max), read-out: tmax), 2 h; in data set [2] (trametinib 2 mg QD, Cycle 2 Day 7 with AMG 232, Arm 1 cohort 1 (AMG 232 120 mg), median (min-max), read-out: tmax), 2 h; in data set [2] (trametinib 2 mg QD, Cycle 2 Day 7 with AMG 232, Arm 1 cohort 2 (AMG 232 180 mg), median (min-max), read-out: tmax) it was 2 h. The time of peak concentration (Tmax) in data set [2] (trametinib 2 mg QD, Cycle 2 Day 7 with AMG 232, Arm 2 cohort 1 (AMG 232 120 mg), median (min-max), read-out: tmax) is 2 h; in data set [2] (trametinib 2 mg QD, Cycle 2 Day 7 with AMG 232, Arm 2 cohort 2 (AMG 232 180 mg), n = 1, read-out: tmax), 2 h; in data set [2] (trametinib 2 mg QD, Cycle 2 Day 7 with AMG 232, Arm 2 cohort 3 (AMG 232 240 mg), median (min-max), read-out: tmax) it was 2 h; in data set [2] (trametinib, cycle 2, day 7, with AMG 232 co-administration, across dose cohorts, read-out: median tmax), 1 to 3 h. The AUC24hr in data set [2] (trametinib 2 mg QD, Cycle 1 Day 21 without AMG 232, Arm 2 cohort 2 (AMG 232 180 mg), geometric mean (CV%)) is recorded as 471 (26.7%) n = 5 hr•ng/mL; in data set [2] (trametinib 2 mg QD, Cycle 1 Day 21 without AMG 232, Arm 2 cohort 3 (AMG 232 240 mg), geometric mean (CV%)) it was 385 (22.9%) n = 6 hr•ng/mL; in data set [2] (setting [3]), 468 (23.5%)^a n = 3 hr•ng/mL; in data set [2] (setting [4]) it was 351 (41.9%)^a n = 4 hr•ng/mL. The median tmax in data set [2] (trametinib, cycle 1, day 21, without AMG 232 co-administration, across dose cohorts) was determined as 2 h.

As to `CC(C)(C)c1nc(-c2cccc(NS(=O)(=O)c3c(F)cccc3F)c2F)c(-c2ccnc(N)n2)s1` [dabrafenib], in data set [1] (10 patients in Arm 1, n=2), the “Patients discontinuing dabrafenib due to AEs” value was determined as 20%. In addition, the “Effect of AMG 232 on dabrafenib exposures” value in data set [2] (dabrafenib and trametinib with and without AMG 232) is “not significantly altered”. The Cmax was 1740 ng/mL in data set [2] (150 mg BID, dabrafenib 150 mg BID, Cycle 1 Day 21, T + D without AMG 232, Arm 1 cohort 1 (AMG 232 120 mg), geometric mean (CV%)); 3310 ng/mL in data set [2] (150 mg BID, dabrafenib 150 mg BID, Cycle 1 Day 21, T + D without AMG 232, Arm 1 cohort 2 (AMG 232 180 mg), geometric mean (CV%)); 1200 ng/mL in data set [2] (dabrafenib 150 mg BID, Cycle 2 Day 7, T + D with AMG 232, Arm 1 cohort 1 (AMG 232 120 mg), geometric mean (CV%)); 1750 ng/mL in data set [2] (dabrafenib 150 mg BID, Cycle 2 Day 7, T + D with AMG 232, Arm 1 cohort 2 (AMG 232 180 mg), geometric mean (CV%)). Moreover, the AUC(0-t) in data set [2] (150 mg BID, dabrafenib 150 mg BID, Cycle 1 Day 21, T + D without AMG 232, Arm 1 cohort 1 (AMG 232 120 mg), geometric mean (CV%), read-out: AUC6hr) stood at 4840 ng·h/mL; in data set [2] (150 mg BID, dabrafenib 150 mg BID, Cycle 1 Day 21, T + D without AMG 232, Arm 1 cohort 2 (AMG 232 180 mg), geometric mean (CV%), read-out: AUC6hr), 7450 ng·h/mL; in data set [2] (dabrafenib 150 mg BID, Cycle 2 Day 7, T + D with AMG 232, Arm 1 cohort 1 (AMG 232 120 mg), geometric mean (CV%), read-out: AUC6hr), 3640 ng·h/mL; in data set [2] (dabrafenib 150 mg BID, Cycle 2 Day 7, T + D with AMG 232, Arm 1 cohort 2 (AMG 232 180 mg), geometric mean (CV%), read-out: AUC6hr) it was 4910 ng·h/mL. Moreover, the Tmax in data set [2] (150 mg BID, dabrafenib 150 mg BID, Cycle 1 Day 21, T + D without AMG 232, Arm 1 cohort 2 (AMG 232 180 mg), median (min-max), read-out: tmax) turned out to be 1 h; in data set [2] (dabrafenib 150 mg BID, Cycle 1 Day 21, T + D without AMG 232, Arm 1 cohort 1 (AMG 232 120 mg), median (min-max), read-out: tmax), 1 h; in data set [2] (dabrafenib, cycle 1, day 21, without AMG 232 co-administration, read-out: median tmax) it was 1 h.
